According to ChEMBL document CHEMBL1158442, “Design, synthesis and structure-activity relationships of (1H-pyridin-4-ylidene)amines as potential antimalarials” (Bioorg Med Chem Lett, 2009):

Key:
[1] = system: Plasmodium falciparum; experiment: Antimalarial activity after 48 hrs against chloroquine-resistant Plasmodium falciparum W2 by [3H]hypoxanthine uptake; type: functional, organism-based
[2] = system: Plasmodium falciparum; experiment: Antimalarial activity after 48 hrs against atovaquone-resistant Plasmodium falciparum FCR3 by [3H]hypoxanthine uptake; type: functional, organism-based

Structure (SMILES) | IC50 [1] | IC50 [2]
CCn1cc/c(=N\c2cccc(CCc3ccc(C(F)(F)F)cc3)c2)c(Cl)c1 | 1.6 µM | 1.87 µM
CC[N+](C)(CC)Cc1cc(/N=c2\ccn(C)cc2S(=O)(=O)N(C)C)ccc1OC | > 50 µM | > 10 µM
CCn1cc/c(=N\c2ccc(CCc3ccccc3)cc2)c(Cl)c1 | > 10 µM | 3.74 µM
CCn1cc/c(=N\c2cccc(CCc3ccccc3)c2)c(N)c1 | 1.67 µM | 2.08 µM
CCN(CC)Cc1cc(/N=c2\ccn(C)c(C)c2)ccc1O | 20.7 µM | 8.09 µM
CCN(CC)Cc1cc(/N=c2\ccn(C)cc2C)ccc1O | 33 µM | > 10 µM
Cn1cc/c(=N\c2cccc(CCc3ccccc3)c2)c(Cl)c1 | 4.75 µM | 2.89 µM
COc1ccc(CCc2cccc(/N=c3\ccn(C)cc3Cl)c2)cc1 | 5.24 µM | 5.12 µM
CCn1cc(Cl)c(=Nc2cccc(CCc3ccc(OC(F)(F)F)cc3)c2)c(Cl)c1 | 0.94 µM | 2.8 µM
CCN(CC)Cc1cc(N=c2ccn(C)cc2)ccc1O | 8.61 µM | 7.9 µM
CCn1cc/c(=N\c2cccc(CCc3ccc(OC(F)(F)F)cc3)c2)c(Cl)c1 | 1.07 µM | 1.7 µM
CCn1cc/c(=N\c2cccc(CCCc3ccccc3)c2)c(Cl)c1 | 2.43 µM | 2.25 µM
On1cc/c(=N\c2cccc(CCc3ccccc3)c2)c(Cl)c1 | > 8900 µM | > 8900 µM
CCn1cc/c(=N\c2cccc(CCc3ccccc3)c2)c(Cl)c1 | 3.46 µM | 3.53 µM
CCn1cc/c(=N\c2cccc(CCc3ccc(Cl)cc3)c2)c(Cl)c1 | 3.24 µM | 2.17 µM
CCn1cc/c(=N\c2cccc(CCc3ccc(OC)cc3)c2)c(Cl)c1 | 3.44 µM | 3.95 µM
CCn1cc/c(=N\c2ccccc2CCc2ccccc2)c(Cl)c1 | 6.77 µM | 3.19 µM
Cn1cc/c(=N\c2cccc(CCc3ccccc3)c2)c(N)c1 | 1.47 µM | 2.21 µM
CC[N+](C)(CC)Cc1cc(/N=c2\ccn(C)c(C)c2)ccc1O | > 50 µM | 9.86 µM
CCn1cc/c(=N\c2cccc(CCc3ccc(OC(F)(F)F)cc3)c2)c(N)c1 | 3.91 µM | 1.83 µM
O=C1C(O)=C([C@H]2CC[C@H](c3ccc(Cl)cc3)CC2)C(=O)c2ccccc21 [ATOVAQUONE] |  | 1.89 µM
Cc1nc(C)c(Cl)c(O)c1Cl [CLOPIDOL] | 9.73 µM | 3.37 µM
